This is an account of results in patent US9289488B2, “Vaccine engineering” (AC Immune SA, priority 2010, dated 2016).

Like-named read-outs stand apart in the source and are kept apart here. K(Palm) = lysine with palmitoylated side chain (X = Palmitoyl); K(Ac) = lysine with acetylated side chain (X = Acetyl)

Data set [1] in a line: ThT fluorescence binding to liposomal peptide constructs. The following applies: for Kd: ThT binding, single site fit, read-out: App. Kd; for Kd / Bmax: liposomes DMPC/DMPG/cholesterol/MPLA 9:1:7:0.06, diluted 8-fold; for Bmax: ThT fluorescence at saturation; for ThT fluorescence emission (in words): emission at 485 nm, excitation 440 nm, PBS; for Bmax (% rel. ACI-24): relative to ACI-24 (Palm1-15). As to the method: (§1) • CD spectra were acquired on a Jasco-815 spectropolarimeter (Japan) with a 0.1 cm path length quartz cuvette at 23° C. Measurements were made with a 1.0 nm bandwidth and 0.5 nm resolution. A scan speed of 50 nm/min was employed with response time of 1 s. Solvent control spectra (4 scans) were averaged and subtracted from the average of 8 scans of each sample spectra. All spectra ([θ]obs, degrees) were smoothed after being converted to mean residue molar ellipticity ([θ], degrees cm^2 dmol^−1) with the equation [θ]=[θ]obs×(MRW/10lc), where MRW is the mean residue molecular weight (MW/number of residues), l is the optical path length (cm) and c is the concentration (g/cm^3). […] Spectra of the corresponding empty liposomes lacking peptide were subtracted. A2 ThT Fluorescence. • Fluorescence emission spectra were measured at 25° C. on a Tecan M200 spectrofluorimeter with an excitation of 440 nm. […] Data were fitted using non-linear regression analysis (SigmaPlot v10.0) assuming single-site binding saturation in order to calculate apparent Kd and maximal binding Bmax. A3 Disaggregation Assay Using ThT Fluorescence. • ZnCl2, FeCl3 or CuCl2 (2 μL, 1 mM in H2O) were incubated with liposomes diluted 4-fold in PBS (48 μL) for 2 h at 22° C. PBS (48 μL) with or without DPTA (0.4 mM) was added accordingly after 5 min. ThT (2 μL, 2.4 mM in H2O) was then added and fluorescence measured after a further 5 min. For disaggregation with small molecules, Rosmarinic acid, Tannic acid or Methylene Blue (2 μL, 2.7 mM in PBS) were added to 86 μL of liposomes diluted 8-fold with PBS. After 2 h incubation at RT, ThT (2 μL, 2.4 mM in H2O) was added and after 10 min. fluorescence was measured at 490 nm (Ex. 440 nm). A4 MAS-NMR Spectroscopy. • Experiments were conducted using a 3.2 mm triple-resonance (^1H, ^13C, ^15N) MAS probe (Bruker Biospin, Germany) at a static magnetic field of 16.4 T corresponding to 700 MHz proton resonance frequency. […] Experiments were recorded using 10 kHz MAS and at effective sample temperature of about 4° C. After a cross polarization (CP) step employing a contact time of 600 μs, the SPC5 pulse sequence was used for generation of DQ coherence, with a ^13C radio frequency (r.f.) field strength of 50 kHz and DQ excitation and reconversion time totaling 2.28 ms. Acquisition involved in each case 110K repetitions. An ^1H field strength of 83.3 kHz was used during excitation and SPINAL64 proton decoupling. A5 SPR Analysis of Peptide-Liposome Interactions. • Experiments were performed at 25° C. using 0.2 μm filtered and degassed PBS as running buffer. An L1 sensor chip (GE Healthcare, Sweden) was docked into a BIAcore 1000 instrument and the chip surface conditioned by injection of 50 μL of Zwittergent at 30 μL/min. Liposomes lacking peptide (‘empty’ liposomes) were then immobilized onto the sensor chip following 2 successive injections of 50 μL at 2 μL/min. Finally 50 μL of 50 mM NaOH was injected over the surface at 30 μL/min in order to render the surface more unilamellar. […] 50 μL of acetylated peptides solubilized in PBS were then injected over the surface over a range of concentrations at a flow rate of 30 μL/min, followed by dissociation with PBS for 300 s. After analysis of the interaction of different peptides, a fresh lipid bilayer was immobilized. A6 Dynamic Light Scattering. • Liposome samples were diluted 100-fold with PBS. Analysis was performed using a Zetasizer Nano (Malvern, USA) at 25° C. Data was analyzed with DTS 5.0 (Malvern) software by signal intensity in order to calculate the average liposome diameter and polydispersity index (PDI). A7 Cryo-EM. • Liposome sample was diluted 6-fold with PBS and then 3 μL was applied on glow discharged R 2/4 holey carbon grids (Quantifoil®), blotted off, and plunged frozen into liquid ethane under temperature and humidity controlled conditions using the Vitribot™ (FEI, The Netherlands).

Data set [2] in a line: CD spectroscopy of peptide secondary structure. The following applies: PBS; palmitoylated peptides in liposomes, acetylated peptides alone. The data set is classed as physicochemical. As for the experimental part:
as §1

Data set [3] addresses T1, β-sheet aggregates of liposomal Palm1-15 (ACI-24) (Homo sapiens, UniProt P05067).
T1 construct: purchased Bachem (Switzerland); host or cells: chemical synthesis
The data set is described as follows: Disaggregation assay using ThT fluorescence on ACI-24. The class given is biochemical. As to conditions: for decrease of ThT fluorescence upon addition of metal: near stoichiometric metal:peptide (20 μM : 15 μM), 2 h incubation; for ThT fluorescence after incubation with β-sheet breaker small molecule: ACI-24, 2 h incubation. As to the method:
as §1

The conditions of data set [4]: reported value; read-out: apparent Kd for the interaction of ThT with Aβ1-40; cited from earlier work.

Turning to “H-K(X)-K(X)-DAEFR-K(X)-K(X)-OH [Palm1-5, X = Palmitoyl]”, in data set [1], the Kd stood at 0.7 µM, the Bmax was determined as 12653, the “ThT fluorescence emission (in words)” value is listed as “lower ThT fluorescence intensity” and the “Bmax (% rel. ACI-24)” value is given as 35%. In addition, the “Secondary structure by CD spectroscopy” value in data set [2] is “mixed proportion of extended β-sheet and random coil conformations”.
Take `[Cl][Cu][Cl]` [Cu(II), CuCl2]: the EC50 (commonly the concentration needed to bring the measured effect to its halfway point) in data set [3] (ACI-24, ThT fluorescence, read-out: EC50 value for Cu(II) disaggregation) was approximately 3 µM. The “decrease of ThT fluorescence upon addition of metal” value (shortened to “decrease”) in data set [3] was approximately 75%.
`O=C(/C=C/c1ccc(O)c(O)c1)O[C@H](Cc1ccc(O)c(O)c1)C(=O)O` [Rosmarinic acid]: the “ThT fluorescence after incubation with β-sheet breaker small molecule” value (“ThT fluorescence after incubation” below) in data set [3] is recorded as “decrease of fluorescence”.
Turning to “H-K(X)-K(X)-DAEFRHKSGYEVHHQ-K(X)-K(X)-OH ({K(Palm)-K(Palm)}-DAEFRHKSGYEVHHQ-{K(Palm)-K(Palm)-OH}) [Palm1-15(D7K), X = Palmitoyl]”, in data set [1], the Kd was 8.8 µM, the Bmax worked out at 21197 and the “Bmax (% rel. ACI-24)” value stood at 58%.
With `O=C(OC[C@H]1O[C@@H](OC(=O)c2cc(O)c(O)c(OC(=O)c3cc(O)c(O)c(O)c3)c2)[C@H](OC(=O)c2cc(O)c(O)c(OC(=O)c3cc(O)c(O)c(O)c3)c2)[C@@H](OC(=O)c2cc(O)c(O)c(OC(=O)c3cc(O)c(O)c(O)c3)c2)[C@@H]1OC(=O)c1cc(O)c(O)c(OC(=O)c2cc(O)c(O)c(O)c2)c1)c1cc(O)c(O)c(OC(=O)c2cc(O)c(O)c(O)c2)c1` [Tannic acid], the “ThT fluorescence after incubation” value in data set [3] was “decrease of fluorescence”.
Turning to “H-K(X)-K(X)-DAKFRHKSGYKVHHQ-K(X)-K(X)-OH ({K(Ac)-K(Ac)}-DAKFRHKSGYKVHHQ-{K(Ac)-K(Ac)-OH}) [Acetyl1-15(E3K, D7K, E11K), X = Acetyl]”, in data set [2], the “Secondary structure by CD spectroscopy” value was “unstructured random coil conformations”.
As to `[Cl-].[Cl-].[Zn+2]` [Zn(II), ZnCl2], the “decrease” value in data set [3] was approximately 12%.
“H-K(X)-K(X)-DAKFRHKSGYEVHHQ-K(X)-K(X)-OH ({K(Palm)-K(Palm)}-DAKFRHKSGYEVHHQ-{K(Palm)-K(Palm)-OH}) [Palm1-15(E3K, D7K), X = Palmitoyl]”: in data set [1], the Kd came to 12.1 µM, the Bmax is 12567 and the “Bmax (% rel. ACI-24)” value was found to be 35%.
In the case of “H-K(X)-K(X)-DAEFRHKSGYEVHHQ-K(X)-K(X)-OH ({K(Ac)-K(Ac)}-DAEFRHKSGYEVHHQ-{K(Ac)-K(Ac)-OH}) [Acetyl1-15(D7K), X = Acetyl]”, the “Secondary structure by CD spectroscopy” value in data set [2] is “unstructured random coil conformations”.
On the same count and under the same terms, the entry for “H-K(X)-K(X)-DAKFRHKSGYEVHHQ-K(X)-K(X)-OH ({K(Ac)-K(Ac)}-DAKFRHKSGYEVHHQ-{K(Ac)-K(Ac)-OH}) [Acetyl1-15(E3K, D7K), X = Acetyl]” is “unstructured random coil conformations”.
Consider “H-K(X)-K(X)-QHHVEYGSDHRFEAD-K(X)-K(X)-OH [Acetyl15-1] ({K(Ac)-K(Ac)}-QHHVEYGSDHRFEAD-{K(Ac)-K(Ac)-OH}) [X = Acetyl]”, for which, in data set [1], the “ThT fluorescence emission (in words)” value is listed as “no fluorescence”. Besides, the “Secondary structure by CD spectroscopy” value in data set [2] was “unstructured random coil conformations”.
Consider “H-K(X)-K(X)-DAAFRHKSGYEVHHQ-K(X)-K(X)-OH ({K(Palm)-K(Palm)}-DAAFRHKSGYEVHHQ-{K(Palm)-K(Palm)-OH}) [Palm1-15(E3A, D7K), X = Palmitoyl]”, for which, in data set [1], the Kd came out at 14.7 µM, the Bmax is recorded as 24854 and the “Bmax (% rel. ACI-24)” value came out at 68%.
Regarding Aβ1-40: β-amyloid peptide Aβ1-40, the Kd in data set [4] is 11 µM.
As for `[Cl][Fe]([Cl])[Cl]` [Fe(III), FeCl3], the “decrease” value in data set [3] was “none”.
As for `CN(C)c1ccc2nc3ccc(=[N+](C)C)cc-3sc2c1` [Methylene Blue], in data set [3], the “ThT fluorescence after incubation” value is listed as “most efficient disaggregation”.
In the case of “H-K(X)-K(X)-QHHVEYGSDHRFEAD-K(X)-K(X)-OH [Palm15-1] ({K(Palm)-K(Palm)}-QHHVEYGSDHRFEAD-{K(Palm)-K(Palm)-OH}) [X = Palmitoyl]”, in data set [1], the Kd amounted to 7.8 µM, the Bmax is 11023 and the “Bmax (% rel. ACI-24)” value is on record as 30%. Besides, in data set [2], the “Secondary structure by CD spectroscopy” value is “β-sheet conformation”.
On to “H-K(X)-K(X)-GHEAYHSVERFDDQH-K(X)-K(X)-OH [scAcetyl15] ({K(Ac)-K(Ac)}-GHEAYHSVERFDDQH-{K(Ac)-K(Ac)-OH}) [X = Acetyl]”, for which the “ThT fluorescence emission (in words)” value in data set [1] is “no fluorescence”. Also, the “Secondary structure by CD spectroscopy” value in data set [2] is on record as “unstructured random coil conformations”.
Consider “H-K(X)-K(X)-GHEAYHSVERFDDQH-K(X)-K(X)-OH [scPalm15] ({K(Palm)-K(Palm)}-GHEAYHSVERFDDQH-{K(Palm)-K(Palm)-OH}) [X = Palmitoyl]”, for which, in data set [1], the Kd was determined as 7.9 µM, the Bmax worked out at 13844 and the “Bmax (% rel. ACI-24)” value is given as 38%. The “Secondary structure by CD spectroscopy” value in data set [2] is “β-sheet conformation”.
As for “H-K(X)-K(X)-DAAFRHKSGYEVHHQ-K(X)-K(X)-OH ({K(Ac)-K(Ac)}-DAAFRHKSGYEVHHQ-{K(Ac)-K(Ac)-OH}) [Acetyl1-15(E3A, D7K), X = Acetyl]”, the “Secondary structure by CD spectroscopy” value in data set [2] is “unstructured random coil conformations”.
Regarding “H-K(X)-K(X)-DAKFRHKSGYKVHHQ-K(X)-K(X)-OH ({K(Palm)-K(Palm)}-DAKFRHKSGYKVHHQ-{K(Palm)-K(Palm)-OH}) [Palm1-15(E3K, D7K, E11K), X = Palmitoyl]”, in data set [1], the Kd is 10.1 µM, the Bmax was 24981 and the “Bmax (% rel. ACI-24)” value was 69%.
